# Key:
# lung cancer cells = assay: Cytotoxicity SRB assay, summary of Table 2; format: cell-based, Human; conditions: summary in words of Table 2
# From the text: (§1) Human non-small cell lung cancer (NSCLC) cell lines (e.g., A549, H441GL and H1299), colon cancer cell lines (e.g., HCT116 and DLD1), breast cancer cell lines (e.g., MCF7 and MDA-MB-231), and pancreatic cancer cell lines (e.g., PANC-1 and SUIT-2) were used in cytotoxicity studies. These NSCLC cell lines have intrinsic resistance to epidermal growth factor receptor (EGFR) inhibitors, e.g., gefitinib. A549 and H441GL are EGFR-wild type adenocarcinoma cell lines. H1299 is an EGFR-wild type large cell carcinoma cell line. HCT116 and DLD1 are metastatic colon cell lines. MCF7 is a hormone-responsive breast cancer cell line. MDA-MB-231 is a triple-negative breast cancer cell line. PANC-1 is a metastatic adenocarcinoma cell line. SUIT-2 is a pancreatic ductal adenocarcinoma cell line.
# (§2) Cells were plated in 96-well plates at a density of 2000 cells per well in triplicate. The cells in each well were treated on the third day (to ensure proper plating efficiency and vitality) with different concentrations (0-50 μM) of each test compound for 48 h.
# (§3) Cell viability was assessed using the sulforhodamine B (SRB) assay. The medium was discarded, and the adherent cells were fixed by 100 μL of cold 10% trichloroacetic acid (w/v) in each well for 1 h at 4° C. After fixation, cells were stained with 100 μL/well of 0.4% (w/v, in 1% acetic acid) SRB solution for 30 min at room temperature, and then washed 5 times with 1% acetic acid. After air-drying, 100 μL of 10 mM Tris base was added to each well and the absorbance was read at 530 nm. Cytotoxicity is expressed as the percent of cells in drug treated wells relative to number of cells in the solvent only control (set to 100%). Each experiment was performed independently in triplicate and cytotoxicity IC50 value of each test compound was calculated from cytotoxicity data obtained at various concentrations.
# NA indicates no activity.
# SUIT-2 = assay: Cytotoxicity, sulforhodamine B (SRB) assay, SUIT-2; format: cell-based, human; conditions: SUIT-2, Pancreas, 48 h
# From the text: as §1
# (§4) All cell lines were grown and maintained in RPMI medium supplemented with 10% fetal bovine serum (FBS, Invitrogen), 2 mM L-glutamine, 100 U/mL penicillin, and 100 μg/mL streptomycin. For cell the culture experiment, stock solution (10 mM) of each test compound was dissolved in dimethyl sulfoxide (DMSO; Sigma).
# as §2, §3
# MDA-MB-231 = assay: Cytotoxicity, sulforhodamine B (SRB) assay, MDA-MB-231; format: cell-based, human; conditions: MDA-MB-231, Breast, 48 h
# From the text: as §1, §4, §2, §3
# H441GL = assay: Cytotoxicity, sulforhodamine B (SRB) assay, H441GL; format: cell-based, Human; conditions: 48 h, NA indicates no activity
# From the text: as §1, with “These NSCLC cell lines have intrinsic resistance to epidermal growth factor receptor (EGFR) inhibitors, e.g., gefitinib.” left out
# as §4, §2, §3
# A549 = assay: Cytotoxicity, sulforhodamine B (SRB) assay, A549; format: cell-based, Human; conditions: A549, 48 h, NA indicates no activity
# From the text: as §1, with “These NSCLC cell lines have intrinsic resistance to epidermal growth factor receptor (EGFR) inhibitors, e.g., gefitinib.” left out
# as §4, §2, §3
# MCF7 = assay: Cytotoxicity, sulforhodamine B (SRB) assay, MCF7; format: cell-based, human; conditions: MCF7, Breast, 48 h
# From the text: as §1, §4, §2, §3
# PANC-1 = assay: Cytotoxicity, sulforhodamine B (SRB) assay, PANC-1; format: cell-based, human; conditions: PANC-1, Pancreas, 48 h, NA = no activity
# From the text: as §1, §4, §2, §3
# H441GL cells [1] = assay: Study 2: tumor size in mouse lung cancer model; format: in vivo, NOD/SCID mice; conditions: Study 2, 0.0127 mmol/kg daily, i.p.; for Tumor Size [Fold Change from Week 3 (Mean ± SD, n = 4)] Week 3: Week 3 (baseline, start of treatment)
# Protocol: (§5) H441GL cells (1×10^6 cells in 100 μL phosphate-buffered saline/injection) were subcutaneously injected into the right flank of NOD/SCID mice (female, 4-6 weeks old). Mice were allowed 2 weeks for tumor growth. On the first day of Week 3 post injection, tumor-bearing mice were randomly divided into control group (DMSO vehicle, intraperitoneal (i.p.) injection) and test compound treatment groups (5 mg/kg/day, 5 days/week, i.p. injection). Over the period of 10 weeks, tumorigenesis in both groups was measured using a caliper on a weekly basis. The change in tumor size was expressed as in fold change from Week 3. In this study body weight of each mouse was also recorded at the end of each study week.
# In this study, the daily dose was 0.0127 mmol/kg instead of 5 mg/kg.
# H441GL cells [2] = assay: Study 1: tumor size in mouse lung cancer model; format: in vivo, NOD/SCID mice; conditions: Study 1, 5 mg/kg/day, 5 days/week, i.p.; for Tumor Size [Fold Change from Week 3 (Mean ± SD, n = 4)] Week 3: Week 3 (baseline, start of treatment)
# Protocol: as §5
# H1299 = assay: Cytotoxicity, sulforhodamine B (SRB) assay, H1299; format: cell-based; conditions: Homo sapiens, NCI-H1299, H1299, 48 h
# From the text: as §1, with “These NSCLC cell lines have intrinsic resistance to epidermal growth factor receptor (EGFR) inhibitors, e.g., gefitinib.” left out
# as §4, §2, §3
structure (smiles),measurement,setting,value
COCCOCCOCCN1CCN(CCCN2c3ccccc3Sc3ccc(Cl)cc32)CC1 [Compound 4-1a],inhibition of cell proliferation of lung cancer cells,lung cancer cells,inhibit cell proliferation
same,IC50,SUIT-2,13.2 µM
same,IC50,MDA-MB-231,11.9 µM
same,IC50,H441GL,13.2 µM
same,IC50,A549,32.5 µM
same,IC50,MCF7,12.8 µM
same,IC50,PANC-1,12.3 µM
COCCOCCOCCOCCOCCOCCN1CCN(CCCN2c3ccccc3Sc3ccc(Cl)cc32)CC1 [Compound 4-2a],inhibition of cell proliferation of lung cancer cells,lung cancer cells,inhibit cell proliferation
same,"Tumor Size [Fold Change from Week 3 (Mean ± SD, n = 4)] Week 3",H441GL cells [1],1 ± 0 Fold Change
same,"Tumor Size [Fold Change from Week 3 (Mean ± SD, n = 4)] Week 9",H441GL cells [1],10.3 ± 1.6 Fold Change
same,"Tumor Size [Fold Change from Week 3 (Mean ± SD, n = 4)] Week 13",H441GL cells [1],25.6 ± 5.1 Fold Change
same,IC50,SUIT-2,13.5 µM
same,IC50,MDA-MB-231,18.1 µM
same,IC50,H441GL,9.1 µM
same,IC50,A549,10.9 µM
same,IC50,MCF7,13.2 µM
same,IC50,PANC-1,13.1 µM
COCCOCCOCCOCCOCCOCCOCCOCCOCCOCCOCCOCCN1CCN(CCCN2c3ccccc3Sc3ccc(Cl)cc32)CC1 [Compound 4-3a],inhibition of cell proliferation of lung cancer cells,lung cancer cells,inhibit cell proliferation
same,"Tumor Size [Fold Change from Week 3 (Mean ± SD, n = 4)] Week 3",H441GL cells [1],1 ± 0 Fold Change
same,"Tumor Size [Fold Change from Week 3 (Mean ± SD, n = 4)] Week 9",H441GL cells [1],12.5 ± 1.5 Fold Change
same,"Tumor Size [Fold Change from Week 3 (Mean ± SD, n = 4)] Week 13",H441GL cells [1],32.6 ± 4.3 Fold Change
same,IC50,SUIT-2,25.4 µM
same,IC50,MDA-MB-231,15.6 µM
same,IC50,H441GL,12.7 µM
same,IC50,A549,11.9 µM
same,IC50,MCF7,10 µM
same,IC50,PANC-1,7.1 µM
"COCCOCCOCCOC(=O)N1CCN(CCCN2c3ccccc3Sc3ccc(Cl)cc32)CC1 [Compound 5-1a, NDP-CO—O—[CH2CH2O]3—CH3]",inhibition of cell proliferation of lung cancer cells,lung cancer cells,inhibit cell proliferation
same,IC50,SUIT-2,18.6 µM
same,IC50,MDA-MB-231,22.2 µM
same,IC50,H441GL,16 µM
same,IC50,A549,15.7 µM
same,IC50,MCF7,15.5 µM
same,"Tumor Size [Fold Change from Week 3 (Mean ± SD, n = 4)] Week 3",H441GL cells [2],1 ± 0 Fold Change
same,"Tumor Size [Fold Change from Week 3 (Mean ± SD, n = 4)] Week 9",H441GL cells [2],24.9 ± 4.3 Fold Change
same,"Tumor Size [Fold Change from Week 3 (Mean ± SD, n = 4)] Week 13",H441GL cells [2],55.4 ± 10.8 Fold Change
same,IC50,PANC-1,6.7 µM
"COCCOCCOCCOCCOCCOCCOC(=O)N1CCN(CCCN2c3ccccc3Sc3ccc(Cl)cc32)CC1 [Compound 5-2a, NDP-CO—O—[CH2CH2]6—CH3]",inhibition of cell proliferation of lung cancer cells,lung cancer cells,inhibit cell proliferation
same,IC50,SUIT-2,16.2 µM
same,IC50,MDA-MB-231,21.6 µM
same,IC50,H441GL,18.7 µM
same,IC50,A549,25.2 µM
same,IC50,MCF7,15.3 µM
same,"Tumor Size [Fold Change from Week 3 (Mean ± SD, n = 4)] Week 3",H441GL cells [2],1 ± 0 Fold Change
same,"Tumor Size [Fold Change from Week 3 (Mean ± SD, n = 4)] Week 9",H441GL cells [2],28.0 ± 6.5 Fold Change
same,"Tumor Size [Fold Change from Week 3 (Mean ± SD, n = 4)] Week 13",H441GL cells [2],66.2 ± 18.4 Fold Change
same,IC50,PANC-1,6.9 µM
"COCCOCCOCCOCCOCCOCCOCCOCCOCCOCCOCCOCCOC(=O)N1CCN(CCCN2c3ccccc3Sc3ccc(Cl)cc32)CC1 [Compound 5-3a, NDP-CO—O—[CH2CH2O]12—CH3]",inhibition of cell proliferation of lung cancer cells,lung cancer cells,inhibit cell proliferation
same,IC50,SUIT-2,11.3 µM
same,IC50,MDA-MB-231,8.9 µM
same,IC50,H441GL,3 µM
same,IC50,A549,2.7 µM
same,IC50,MCF7,6.5 µM
same,"Tumor Size [Fold Change from Week 3 (Mean ± SD, n = 4)] Week 3",H441GL cells [2],1 ± 0 Fold Change
same,"Tumor Size [Fold Change from Week 3 (Mean ± SD, n = 4)] Week 9",H441GL cells [2],23.7 ± 3.4 Fold Change
same,"Tumor Size [Fold Change from Week 3 (Mean ± SD, n = 4)] Week 13",H441GL cells [2],53.9 ± 10.1 Fold Change
same,IC50,PANC-1,5 µM
"COCC(COCC(COCC(CN1CCN(CCCN2c3ccccc3Sc3ccc(Cl)cc32)CC1)OC)OC)OC (stereo not shown) [Compound 24a, NDP-[CH2CH(OCH3)CH2O]3—CH3]",inhibition of cell proliferation of lung cancer cells,lung cancer cells,inhibit cell proliferation
same,IC50,H1299,14.2 µM
same,IC50,SUIT-2; Homo sapiens,16.1 µM
same,IC50,MDA-MB-231; Homo sapiens,17.6 µM
same,IC50,H441GL; Homo sapiens,19.1 µM
same,IC50,A549; Homo sapiens,11.7 µM
same,IC50,MCF7; Homo sapiens,14.5 µM
same,IC50,PANC-1; Homo sapiens,12.4 µM
"COCC(COCC(COCC(COCCOCCOCCN1CCN(CCCN2c3ccccc3Sc3ccc(Cl)cc32)CC1)OC)OC)OC (stereo not shown) [Compound 25-1a, NDP-[CH2CH2O]n—[CH2CH(OCH3)CH2O]3—CH3]",inhibition of cell proliferation of lung cancer cells,lung cancer cells,inhibit cell proliferation
same,"Tumor Size [Fold Change from Week 3 (Mean ± SD, n = 4)] Week 3",H441GL cells [1],1 ± 0 Fold Change
same,"Tumor Size [Fold Change from Week 3 (Mean ± SD, n = 4)] Week 9",H441GL cells [1],12.3 ± 2.0 Fold Change
same,"Tumor Size [Fold Change from Week 3 (Mean ± SD, n = 4)] Week 13",H441GL cells [1],31.5 ± 5.4 Fold Change
same,IC50,H1299,13.1 µM
same,IC50,SUIT-2; Homo sapiens,13 µM
same,IC50,MDA-MB-231; Homo sapiens,12.7 µM
same,IC50,H441GL; Homo sapiens,13.3 µM
same,IC50,A549; Homo sapiens,12.7 µM
same,IC50,MCF7; Homo sapiens,14.6 µM
same,IC50,PANC-1; Homo sapiens,16.4 µM
"COCC(COCC(COCC(COCCOCCOCCOCCOCCOCCOCCOCCOCCN1CCN(CCCN2c3ccccc3Sc3ccc(Cl)cc32)CC1)OC)OC)OC (stereo not shown) [Compound 25-2a, NDP-[CH2CH2O]n—[CH2CH(OCH3)CH2O]3—CH3]",inhibition of cell proliferation of lung cancer cells,lung cancer cells,inhibit cell proliferation
same,IC50,H1299,16.8 µM
same,IC50,SUIT-2; Homo sapiens,25.6 µM
same,IC50,MDA-MB-231; Homo sapiens,16.8 µM
same,IC50,H441GL; Homo sapiens,17.5 µM
same,IC50,A549; Homo sapiens,16.7 µM
same,IC50,MCF7; Homo sapiens,13.3 µM
same,IC50,PANC-1; Homo sapiens,35.4 µM
"FC(F)(F)c1ccc2c(c1)N(CCCN1CCNCC1)c1ccccc1S2 [NDT, N-desmethyl trifluoperazine, reference compound]",inhibition of cell proliferation of lung cancer cells,lung cancer cells,inhibit cell proliferation
same,IC50,H1299,6.9 µM
same,IC50,H441GL; Homo sapiens,3.9 µM
same,IC50,A549; Homo sapiens,6.3 µM

# From patent publication US9850219B1, “Phenothiazine derivatives and methods of use thereof” (Acenda Pharma, Inc., priority 2016, dated 2017)
